Read-outs that look alike come from different tables or passages of the source.
How the values were obtained:
[1] = system: MHC class I antigen expression; assay: Flow cytometry of IFN-increased class I antigen expression in FRTL-5 cells; type: cell-based, rat; details: 100 U/ml γ-interferon, 6H medium (TSH), 40 hours
Description: In this experiment 10^6 cells were incubated with MHC class II or MHC class I-specific antibodies as described (Montani, V., et al., ibid (1998b); Saji, M., et al., ibid (1992a); Balducci-Silano, P. L., et al., Endocrinology 139:2309-2313 (1998)). After 30 min on ice, cells were washed with phosphate buffered saline at pH 7.4 and incubated for 30 min with fluorescein-isothiocyanate (FITC)-conjugated antibodies then analyzed by flow cytometry on a FACScan Cytometer using CellQuest software (Becton Dickinson).
The concentration needed to achieve suppression of the interferon induced class I or class II surface expression was determined by testing different concentrations of the compounds (Table 18). Like all other assays, the order of effectiveness was compound 10>11>7 or 8>2>MMI>3.

[2] = system: Y box protein (TSEP-1) RNA; assay: Northern analysis of Y box protein (TSEP-1) RNA levels in FRTL-5 cells; type: cell-based, rat; details: 40 hours
Text: Whereas γ-IFN decreases Y box protein RNA levels in FRTL-5 cells, MMI can reverse this action (FIG. 16). […] The rat TSEP-1 probe was the clone 31 insert, residues 5 to 1395 of the rat TSEP-1 nucleotide sequence reported (Ohmori, M., et al., ibid (1996)); rat β-actin was kindly provided by Dr. B. Paterson (NCI, Bethesda, Md.). Radiolabeling of all probes, hybridization (0.5-1.0×10^6cpm/ml), and washing were as described (Isozaki, O., et al., ibid (1989); Saji, M., et al., ibid (1992); Ohmori, M., et al., ibid (1996)).
The ability of the compounds to reverse the γ-IFN-induced decrease in TSEP-1 RNA levels is once again 10>11>7 or 8>2>MMI>3. This mimics data in all other assays.

[3] = system: swine class I promoter (PD1); assay: Transient transfection CAT assay, class I promoter chimeras in FRTL-5 cells; type: cell-based; details: for inhibition at 10 µM / inhibition at 25 µM / inhibition at 100 µM / inhibition at 1000 µM / inhibition at 5000 µM: Sus scrofa; for CAT activity +γIFN (100 U/ml) + MMI (5 mM) / CAT activity +γIFN (100 U/ml): 5H medium
Text: The full length PD1 promoter, PD1 CAT construct pH […], inserted into the multicloning site of pSV3CAT, has been previously described (Erhlich, R. et al. Immunogenetics 30:18-26 (1989)). […] The deletion series was also cloned into the pSV3CAT reporter construct to assess promoter activities (Weisman J D, et al. ibid (1991); Maguire, J. et al., Mol. Cell. Biol., 12:3078-3086 (1992)). […] The number denotes the most 5′-residue in the 5′-flanking region of the PD1 promoter.
FRTL-5 rat thyroid cells (Interthyr Research Foundation, Baltimore, Md.; ATCC CRL8305) were the same subclone (F1) used in the gel shift experiments described earlier. They were grown in the following medium: Coon's modified F-12 medium containing 5% heat-treated, mycoplasma-free calf serum, 1 mM nonessential amino acids, and a mixture of six hormones (6H) containing bovine TSH (1×10^−10M), insulin (10 μg/ml), cortisol (0.4 ng/ml), transferrin (5 μg/ml), glycyl-L-histidyl-L-lysine acetate (10 ng/ml), and somatostatin (10 ng/ml). Cells were diploid and between their 5th and 25th passage. Fresh medium was added every 2 or 3 days and cells were passaged every 7-10 days. In some experiments, cells were grown to near confluency in 6H medium then maintained for 5-8 days, before experiments were initiated, in 5H medium with no TSH.
To measure the promoter activity of MHC class I promoter constructs, as reported by CAT activity, two procedures were used. In one, rat FRTL-5 thyroid cells were transfected by the electroporation method described previously (Saji, M., et al., ibid (1992b); Giuliani, C., et al., ibid (1995); Saji, M., et al., ibid (1997)). In brief, FRTL-5 cells were grown to 80% confluence, put in fresh 6H medium containing 5% calf serum for 12 hours, harvested, washed and suspended at 1.5×10^7 cells/mil in 0.8 ml electroporation buffer (272 mM sucrose, 7 mM sodium phosphate at pH 7.4, and 1 mM MgCl2). Twenty μg of the full-length CAT construct were added with 5 μg pSVGH. Cells were then pulsed (330 volts, capacitance 25 μfarad), plated (approximately 6×10^6 cell/dish), and cultured for 12 hours in 6H medium containing 5% calf serum. […] After 48 hours they were harvested. […] Medium was taken for hGH radioimmunoassay to monitor transfection efficiency (Nichols Institute, San Juan Capistrano, Calif.) and cells were harvested for CAT assays which used 20-50 μg cell lysate in a final volume of 130 μl. Incubation was at 37° C. for 2 or 4 hours; acetylated chloramphenicol was separated by thin layer chromatograpy (TLC) and positive spots on TLC plates were cut out and quantitated in a scintillation spectrometer. CAT activity was normalized to GH activity and/or cell protein before data were compared.
Alternatively transient transfections used the same class I-CAT chimeras and a DEAE-dextran procedure (Lopata M A, et al., Nucleic Acids Res. 12:5707-5717 (1984); Giuliani C, et al., ibid (1995)). Cells were grown to near (80%) confluency in 6H medium, shifted to 5H medium for 1 day, washed twice with Dulbecco's modified phosphate buffered saline (DPBS), pH 7.4, and incubated 1 hour with 5 ml serum-free 5H medium containing the plasmid DNA plus 250 μg DEAE-dextran (5 Prime-3 Prime, Inc.). Cells were then exposed to 10% dimethylsulfoxide in DPBS for 3 min., washed twice in DPBS, cultured in 5H medium for 24 hours, then maintained therein another 48 hours with or without MMI, MMI derivatives or tautomeric cyclic thiones, as noted. Efficiency of transfection was determined by cotransfection as above or with 5 μg pRSVLuc (De Wet J R, et al., Mol. Cell. Biol. 7:725-737 (1987)).
In this experiment, FRTL-5 cells were grown to near confluency in 6H medium (plus TSH) and then were maintained in 5H medium (no TSH) for 7 days before being treated with γ-IFN or γ-IFN plus MMI for 40 hours. Control cells were those maintained in 5H medium for the same 40 hours. CAT activity was measured as described above.

[4] = FRTL-5, 10 μM, 100 U/ml γ-interferon, 6H medium, 40 hours, read-out: % inhibition of IFN-increased p(−203)CAT class I promoter activity
[5] = FRTL-5, 25 μM, 6H medium, 36 hours, read-out: % inhibition of basal p(−203)CAT class I promoter activity
[6] = FRTL-5, 100 μM, 6H medium, 36 hours, read-out: % inhibition of basal p(−203)CAT class I promoter activity
[7] = FRTL-5, 100 μM, 100 U/ml γ-interferon, 6H medium, 40 hours, read-out: % inhibition of IFN-increased p(−203)CAT class I promoter activity
[8] = FRTL-5, 1.0 mM, 6H medium, 36 hours, read-out: % inhibition of basal p(−203)CAT class I promoter activity
[9] = FRTL-5, 1.0 mM, 100 U/ml γ-interferon, 6H medium, 40 hours, read-out: % inhibition of IFN-increased p(−203)CAT class I promoter activity
[10] = FRTL-5, 5 mM, 6H medium, 36 hours, read-out: % inhibition of basal p(−203)CAT class I promoter activity
[11] = FRTL-5, 5 mM, 100 U/ml γ-interferon, 6H medium, 40 hours, read-out: % inhibition of IFN-increased p(−203)CAT class I promoter activity
[12] = FRTL-5, read-out: % inhibition of IFN-increased p(−203)CAT class I promoter activity
[13] = FRTL-5, read-out: % inhibition of basal p(−203)CAT class I promoter activity

Row | Molecule | Concentration to inhibit IFN-increased antigen expression, Class I [1] | Y box protein (TSEP-1) RNA level, compound +γIFN ([2]; 100 μM compound + γIFN) [%] | Y box protein (TSEP-1) RNA level, compound ALONE ([2]; 100 μM compound alone) [%] | Y box protein (TSEP-1) RNA level, compound +γIFN ([2]; 1 mM compound + γIFN) [%] | Y box protein (TSEP-1) RNA level, compound ALONE ([2]; 1 mM compound alone) [%] | Y box protein (TSEP-1) RNA level, compound +γIFN ([2]; 5 mM compound + γIFN) [%] | Y box protein (TSEP-1) RNA level, compound ALONE ([2]; 5 mM compound alone) [%] | inhibition at 10 µM [3, 4] [%] | inhibition at 25 µM [3, 5] [%] | inhibition at 100 µM [3, 6] [%] | inhibition at 100 µM [3, 7] [%] | inhibition at 1000 µM [3, 8] [%] | inhibition at 1000 µM [3, 9] [%] | inhibition at 5000 µM [3, 10] [%] | inhibition at 5000 µM [3, 11] [%] | also measured
1 | Cn1ccnc1S [Compound 1, 1-Methylimidazole-2-thiol] | 5 mM | 42 ± 7 | 105 ± 8 | 87 ± 7 | 104 ± 12 | 149 ± 12 | 115 ± 9 | 0 | 0 | 0 | 0 | 32 ± 7 | 35 ± 8 | 74 ± 10 | 72 ± 12 | CAT activity +γIFN (100 U/ml) + MMI (5 mM) ([3]; chimera p(−127), 40 hours): 55 ± 4 % of Control; CAT activity +γIFN (100 U/ml) + MMI (5 mM) ([3]; chimera p(−203), 40 hours): 95 ± 26 % of Control; CAT activity +γIFN (100 U/ml) + MMI (5 mM) ([3]; chimera p(−1100), 40 hours): 163 ± 48 % of Control; CAT activity +γIFN (100 U/ml) + MMI (5 mM) ([3]; pSV0 control plasmid, 40 hours): 38 ± 9 % of Control
2 | Cc1ncc([N+](=O)[O-])n1CCO [Compound 2, 2-Methyl-5-nitro-1-imidazole ethanol] | 0.5 ± 1.4 mM | 43 ± 6 | 104 ± 4 | 126 ± 9 | 106 ± 11 | 163 ± 15 | 112 ± 4 | 0 | 0 | 10 ± 8 | 0 | 37 ± 11 | 45 ± 5 | 74 ± 9 | 84 ± 13 | –
3 | Sc1ncc[nH]1 [Compound 3, 2-Mercaptoimidazole] | No Inhibition | 42 ± 11 | 102 ± 7 | 42 ± 5 | 94 ± 6 | 47 ± 4 | 100 ± 8 | – | – | – | – | – | – | – | – | % inhibition of IFN-increased p(−203)CAT class I promoter activity ([3]; 10 μM, 100 U/ml γ-interferon, 6H medium, 40 hours): None; % inhibition of IFN-increased p(−203)CAT class I promoter activity ([3]; 100 μM, 100 U/ml γ-interferon, 6H medium, 40 hours): None; % inhibition of IFN-increased p(−203)CAT class I promoter activity ([3]; 1.0 mM, 100 U/ml γ-interferon, 6H medium, 40 hours): None; % inhibition of IFN-increased p(−203)CAT class I promoter activity ([3]; 5 mM, 100 U/ml γ-interferon, 6H medium, 40 hours): None
4 | Sc1nc2ccccc2[nH]1 [Compound 4, 2-Mercaptobenzimidazole] | – | – | – | – | – | – | – | – | – | – | – | – | – | – | – | inhibition at 10 µM [3, 12]: 0%; inhibition at 100 µM [3, 12]: 0%; inhibition at 1000 µM [3, 12]: 40 ± 8%; inhibition at 5000 µM [3, 12]: 76 ± 10%; inhibition at 25 µM [3, 13]: 0%; inhibition at 100 µM [3, 13]: 0%; inhibition at 1000 µM [3, 13]: 50 ± 12%; inhibition at 5000 µM [3, 13]: 90 ± 14%
5 | O=[N+]([O-])c1ccc2[nH]c(S)nc2c1 [Compound 5, 2-Mercapto-5-nitrobenzimidazole] | – | – | – | – | – | – | – | – | – | – | – | – | – | 45 ± 8 | 43 ± 9 | –
6 | Cc1ccc2[nH]c(S)nc2c1 [Compound 6, 2-Mercapto-5-methylbenzimidazole] | – | – | – | – | – | – | – | – | – | – | – | – | – | 57 ± 13 | 49 ± 7 | –
7 | CSc1nccn1C [Compound 7, S-Methylmethimazole] | 0.424 ± 0.031 mM | 83 ± 10 | 111 ± 16 | 133 ± 15 | 108 ± 4 | – | – | 0 | 0 | 10 ± 9 | 14 ± 11 | 51 ± 6 | 50 ± 13 | 68 ± 8 | 58 ± 12 | –
8 | Cc1cnc(S)n1C [Compound 9, 5-Methylmethimazole] | – | – | – | – | – | – | – | 0 | 0 | 0 | 0 | 14 ± 10 | 10 ± 10 | 25 ± 7 | 29 ± 11 | –
9 | γ-IFN: rat recombinant γ-interferon, 100 U/ml, used to increase MHC class I and class II expression in FRTL-5 cells (protein, UniProt P01581 23-156, looked up) Interferon gamma: QGTLIESLESLKNYFNSSSMDAMEGKSLLLDIWRNWQKDGNTKILESQIISFYLRLFEVLKDNQAISNNISVIESHLITNFFSNSKAKKDAFMSIAKFEVNNPQIQHKAVNELIRVIHQLSPESSLRKRKRSRC | – | – | – | – | – | – | – | – | – | – | – | – | – | – | – | Y box protein (TSEP-1) RNA level +γIFN, % Control ([2]; γ-IFN alone, 100 Units/ml): 45 ± 6%; CAT activity +γIFN (100 U/ml) ([3]; chimera p(−127), 40 hours): 500 ± 27 % of Control; CAT activity +γIFN (100 U/ml) ([3]; chimera p(−203), 40 hours): 750 ± 25 % of Control; CAT activity +γIFN (100 U/ml) ([3]; chimera p(−1100), 40 hours): 460 ± 40 % of Control; CAT activity +γIFN (100 U/ml) ([3]; pSV0 control plasmid, 40 hours): 48 ± 7 % of Control

Source: patent US6365616B1, “Methimazole derivatives and tautomeric cyclic thiones to treat autoimmune diseases” (Sentron Medical, Inc., priority 1998, dated 2002)
